Test results taken from US6337093B1 (priority 1998, dated 2002).

B1: NK-lysin (protein, UniProt P22749 23-145, looked up)
Granulysin: RLSPEYYDLARAHLRDEEKSCPCLAQEGPQGDLLTKTQELGRDYRTCLTIVQKLKKMVDKPTQRSVSNAATRVCRTGRSRWRDVCRNFMRRYQSRVTQGLVAGETAQQICEDLRLCIPSTGPL
notes: Human cytolitic peptide which directly kills the target cells

Assays:
tumor = assay: Combination with bleomycin: tumor growth and life span; conditions: in vivo
From the text: As for interferons, interleucins and other known immunomoludatory materials, the efficacy of the pharmaceutical preparations of the present invention is restricted by the basic capacity of the immune system to recognize and attack cancer cells. However, the efficacy may be enhanced when the pharmaceutical preparations are combined with other antitumor drugs.

[1] = tested on: human and mouse lymphocytes; assay: Active principle: stimulation of lymphocytes' cytotoxic anticancer activity in vitro; assay type: cell-based; conditions: comparative analysis of minimum active concentrations

| Molecule | Effect on tumor growth and life span (tumor) | Concentration to enhance cancer cell destruction relative to the effective concentration of the active principle [1] |
| --- | --- | --- |
| bleomycin | much less effective | – |
| B1 | – | more than a million times |
